Data reported in patent US20250257059A1, “PROTEIN TYROSINE PHOSPHATASE INHIBITORS AND USES THEREOF” (Nerio Therapeutics, Inc., priority 2022, published 2025).

Columns and labels:
[1] = target: full-length human PTPN2 (TC45) (1-387) (Homo sapiens (Human), UniProt P17706); test: Enzymatic assay used to determine potency of PTPN2 inhibitors (full length PTPN2 DiFMUP assay); assay type: biochemical; conditions: 0.5 nM PTPN2, 100 μM DiFMUP, 30 min at room temperature
Method: Compound activity was determined in an in vitro enzymatic assay using untagged, full-length human PTPN2 (TC45) (1-387) protein. PTPN2 was produced in E. coli as a GST-TEV fusion and the GST was removed by TEV digestion, followed by additional purification to yield full-length PTPN2 (SEQ ID 1). PTPN2 enzyme was diluted in assay buffer (50 mM HEPES pH7.5, 0.2 mM EDTA, 1 mM DTT, 0.02% Brij-35, 0.02% BSA) to a final concentration of 0.5 nM and added to black 384-well non-binding plates (Greiner, 781900). Compounds were subsequently added using a Tecan D300e dispenser. Following a 10 min incubation at room temperature, DiFMUP substrate (ThermoFisher, D22065) was added to a final concentration of 100 μM. Plates were transferred to a SpectraMax plate reader (Molecular Devices) and fluorescence intensity was measured (ex 358, em 455) after a 30 min incubation at room temperature. […] A four-parameter curve fit was used to determine IC50 values from % inhibition data.

[2] = test system: murine B16F10 melanoma cell line; test: B16F10 IFNγ-induced cellular growth inhibition assay (xCELLigence RTCA); assay type: cell-based; conditions: Mus musculus, B16-F10, 48 h, B16F10 cells, 1 ng/mL mouse IFNγ, AUC of growth curve, read-out: B16 IFNγ Mediated Growth Inhibition Assay: AVG IC50
Method: Compound activity was determined using an interferon gamma (IFNγ)-induced cellular growth inhibition assay with the murine B16F10 melanoma cell line on an Agilent xCELLigence Real-Time Cell Analysis platform (RTCA). RTCA E-Plate View 96 plates (Agilent, 300601010) were pre-equilibrated with 50 μL of assay media (DMEM+10% FBS, Gibco 10566-024, Gibco 10082-147) at 37° C. in a humidified incubator before taking an initial measurement of impedance (sweep). B16F10 cells cultured in assay media were dissociated with TrypLE Express (Gibco 12605-010) for five minutes at 37° C., diluted in 3 volumes of assay buffer, centrifuged for 5 minutes at 500×g at room temperature before diluting cells to 7,700 cells/mL in assay media, plating 130 μL/well (1,000 cells/well) in the inner 60 wells of the assay plate, and adding 150 μL of assay media to the outer wells of the plate. Cells were incubated at room temperature for 20 min to allow cells to settle before placing them in the xCELLigence reader and incubating overnight at 37° C., sweeping wells every 15 minutes. After 24 hours, well readings were paused, plates were removed from the incubator and compounds were added using a Tecan D300e dispenser. All wells were normalized to a final concentration of 0.5% DMSO. Following a 30 min incubation at 37° C., recombinant mouse IFNγ (R&D Systems™ 485MI100) was diluted to 10 ng/mL in assay media and 20 μL was added to assay wells (1 ng/mL final concentration). Assay plates were placed in the xCELLigence reader and swept every 15 minutes.

Sequence of full-length human PTPN2 (TC45) (1-387) (P17706 other isoform, or with tags, fused parts or gaps): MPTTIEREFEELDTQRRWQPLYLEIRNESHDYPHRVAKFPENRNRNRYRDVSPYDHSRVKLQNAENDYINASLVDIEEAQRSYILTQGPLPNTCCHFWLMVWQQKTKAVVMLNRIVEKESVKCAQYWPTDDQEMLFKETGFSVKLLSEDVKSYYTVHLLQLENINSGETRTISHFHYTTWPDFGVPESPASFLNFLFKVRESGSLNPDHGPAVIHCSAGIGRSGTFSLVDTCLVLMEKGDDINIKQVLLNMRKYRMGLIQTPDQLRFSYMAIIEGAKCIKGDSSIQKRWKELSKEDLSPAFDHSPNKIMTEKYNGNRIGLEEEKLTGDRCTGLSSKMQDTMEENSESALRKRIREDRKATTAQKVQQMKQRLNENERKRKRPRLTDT

IC50 [2] [µM]	Structure (SMILES)	IC50 [1] [µM]
14.8	O=C1CN(c2c(O)cc(CC3CCCN(CC4CCC4)C3)cc2F)S(=O)(=O)N1 (centres unmarked) [Example 32]	0.035
9.96	O=C1CN(c2c(O)cc(CC3CCCN(CC4CCCC4)C3)cc2F)S(=O)(=O)N1 (centres unmarked) [Example 34]	0.043
13	CC(C)(C)CCN1CCCC(Cc2cc(O)c(N3CC(=O)NS3(=O)=O)c(F)c2)C1 (centres unmarked) [Example 35]	0.031
81	CCCCCCN1CCCC(Cc2cc(O)c(N3CC(=O)NS3(=O)=O)c(F)c2)C1 (centres unmarked) [Example 36]	0.022
46.4	O=C1CN(c2c(O)cc(CC3CCCN(CC4CC4)C3)cc2F)S(=O)(=O)N1 (centres unmarked) [Example 37]	0.066
> 100	CCCCN1CCCC(Cc2cc(O)c(N3CC(=O)NS3(=O)=O)c(F)c2)C1 (centres unmarked) [Example 38]	0.154
95.9	O=C1CN(c2c(O)cc(CC3CCCN(CC4CCCO4)C3)cc2F)S(=O)(=O)N1 (centres unmarked) [Example 43]	0.063
55.4	O=C1CN(c2c(O)cc(CC3CCCN(Cc4ccoc4)C3)cc2F)S(=O)(=O)N1 (centres unmarked) [Example 45]	0.03
> 100	O=C1CN(c2c(O)cc(CC3CCCN(Cc4ccco4)C3)cc2F)S(=O)(=O)N1 (centres unmarked) [Example 46]	0.075
27.6	CCN1CCCC(Cc2cc(O)c(N3CC(=O)NS3(=O)=O)c(F)c2)C1 (centres unmarked) [Example 51]	0.063
> 100	O=C1CN(c2c(O)cc(CC3CCCN(Cc4ccn[nH]4)C3)cc2F)S(=O)(=O)N1 (centres unmarked) [Example 53]	0.035
> 45	CN1CCCCC(Cc2cc(O)c(N3CC(=O)NS3(=O)=O)c(F)c2)C1 (centres unmarked) [Example 56, 5-(2-fluoro-6-hydroxy-4-((1-methylazepan-3-yl)methyl)phenyl)-1,2,5-thiadiazolidin-3-one 1,1-dioxide]	0.028
> 100	O=C1CN(c2c(O)cc(CCC3CCNC3)cc2F)S(=O)(=O)N1 (centres unmarked) [Example 62]	0.016
> 100	CC(C)CN1CCC(CCc2cc(O)c(N3CC(=O)NS3(=O)=O)c(F)c2)C1 (centres unmarked) [Example 63]	0.075
> 100	CC(C)CCN1CCC(CCc2cc(O)c(N3CC(=O)NS3(=O)=O)c(F)c2)C1 (centres unmarked) [Example 64]	0.089
11	O=C1CN(c2c(O)ccc(CC3CCCCN3CCc3ccccc3)c2F)S(=O)(=O)N1 (centres unmarked) [Example 78]	0.013
0.674	O=C1CN(c2c(O)cc(CCN3CCCC3)cc2F)S(=O)(=O)N1 [Example 83, 5-(2-fluoro-6-hydroxy-4-(2-(pyrrolidin-1-yl)ethyl)phenyl)-1,2,5-thiadiazolidin-3-one 1,1-dioxide]	0.003
0.651	CCCC1CCN(CCc2cc(O)c(N3CC(=O)NS3(=O)=O)c(F)c2)C1 (centres unmarked) [Example 86]	0.004

The next lines start with the molecule.

Structure (SMILES)	IC50 [2] [µM]	IC50 [1] [µM]
CN1CCCC(Cc2cc(O)c(N3CC(=O)NS3(=O)=O)c(F)c2)C1 (centres unmarked) [Example 31, 5-(2-fluoro-6-hydroxy-4-((1-methylpiperidin-3-yl)methyl)phenyl)-1,2,5-thiadiazolidin-3-one 1,1-dioxide]	29.7	0.047
CCCCCN1CCCC(Cc2cc(O)c(N3CC(=O)NS3(=O)=O)c(F)c2)C1 (centres unmarked) [Example 33]	28.8	0.035
O=C1CN(c2c(O)cc(CC3CCCN(Cc4cc[nH]c4)C3)cc2F)S(=O)(=O)N1 (centres unmarked) [Example 39]	> 100	0.063
O=C1CN(c2c(O)cc(CC3CCCN(CCC4CCOCC4)C3)cc2F)S(=O)(=O)N1 (centres unmarked) [Example 40]	38.6	0.046
CC(C)CCN1CCCC(Cc2cc(O)c(N3CC(=O)NS3(=O)=O)c(F)c2)C1 (centres unmarked) [Example 41]	> 100	0.047
O=C1CN(c2c(O)cc(CC3CCCN(Cc4cn[nH]c4)C3)cc2F)S(=O)(=O)N1 (centres unmarked) [Example 42]	> 100	0.012
O=C1CN(c2c(O)cc(CC3CCCN(CC4CCNCC4)C3)cc2F)S(=O)(=O)N1 (centres unmarked) [Example 44]	38	0.004
O=C1CN(c2c(O)cc(CC3CCCN(Cc4cnco4)C3)cc2F)S(=O)(=O)N1 (centres unmarked) [Example 48]	> 33	0.223
CCCN1CCCC(Cc2cc(O)c(N3CC(=O)NS3(=O)=O)c(F)c2)C1 (centres unmarked) [Example 49]	> 38	0.096
CC(C)CN1CCCC(Cc2cc(O)c(N3CC(=O)NS3(=O)=O)c(F)c2)C1 (centres unmarked) [Example 50]	> 100	0.091
O=C1CN(c2c(O)cc(CC3CCCN(Cc4ncc[nH]4)C3)cc2F)S(=O)(=O)N1 (centres unmarked) [Example 52]	> 73	0.044
O=C1CN(c2c(O)cc(CC3CCCNC3)cc2F)S(=O)(=O)N1 (centres unmarked) [Example 54]	25.8	0.075
CN1CCCC(Cc2cc(O)c(N3CC(=O)NS3(=O)=O)c(F)c2)CC1 (centres unmarked) [Example 60]	> 73	0.024
CN1CCC(CCc2cc(O)c(N3CC(=O)NS3(=O)=O)c(F)c2)C1 (centres unmarked) [Example 61, 5-(2-fluoro-6-hydroxy-4-(2-(1-methylpyrrolidin-3-yl)ethyl)phenyl)-1,2,5-thiadiazolidin-3-one 1,1-dioxide]	> 41	0.019
O=C1CN(c2c(O)cc(CCC3CCCN3)cc2F)S(=O)(=O)N1 (centres unmarked) [Example 66]	4.27	0.016
CC(C)CCN1CCCC1CCc1cc(O)c(N2CC(=O)NS2(=O)=O)c(F)c1 (centres unmarked) [Example 67]	> 100	0.036

Structure (SMILES)	IC50 [2] [µM]	IC50 [1] [µM]
CC(C)CN1CCCC1CCc1cc(O)c(N2CC(=O)NS2(=O)=O)c(F)c1 (centres unmarked) [Example 68]	> 100	0.046
O=C1CN(c2c(O)cc(CC3CNC3)cc2F)S(=O)(=O)N1 [Example 69, 5-(4-(azetidin-3-ylmethyl)-2-fluoro-6-hydroxyphenyl)-1,2,5-thiadiazolidin-3-one 1,1-dioxide]	13.6	0.015
CCCC1CCCN1Cc1cc(O)c(N2CC(=O)NS2(=O)=O)c(F)c1 (centres unmarked) [Example 70, 5-(2-fluoro-6-hydroxy-4-((2-propylpyrrolidin-1-yl)methyl)phenyl)-1,2,5-thiadiazolidin-3-one 1,1-dioxide]	> 45	0.204
CCCC1CCN(Cc2cc(O)c(N3CC(=O)NS3(=O)=O)c(F)c2)C1 (centres unmarked) [Example 71]	19.3	0.065
CC(C)CC1CCN(Cc2cc(O)c(N3CC(=O)NS3(=O)=O)c(F)c2)C1 (centres unmarked) [Example 72]	8.44	0.066
O=C1CN(c2c(O)cc(CN3CCCC3)cc2F)S(=O)(=O)N1 [Example 73]	8.62	0.092
CN1CCCCC1Cc1ccc(O)c(N2CC(=O)NS2(=O)=O)c1F (centres unmarked) [Example 74, 5-(2-fluoro-6-hydroxy-3-((1-methylpiperidin-2-yl)methyl)phenyl)-1,2,5-thiadiazolidin-3-one 1,1-dioxide]	9.29	0.161
CC(C)CCN1CCCCC1Cc1ccc(O)c(N2CC(=O)NS2(=O)=O)c1F (centres unmarked) [Example 76]	8.92	0.006
O=C1CN(c2c(O)ccc(CC3CCCCN3CCC(F)(F)F)c2F)S(=O)(=O)N1 (centres unmarked) [Example 77]	> 100	0.004
CCC1CCCN1CCc1cc(O)c(N2CC(=O)NS2(=O)=O)c(F)c1 (centres unmarked) [Example 84, 5-(4-(2-(2-ethylpyrrolidin-1-yl)ethyl)-2-fluoro-6-hydroxyphenyl)-1,2,5-thiadiazolidin-3-one 1,1-dioxide]	13.7	0.013
CC(C)CC1CCN(CCc2cc(O)c(N3CC(=O)NS3(=O)=O)c(F)c2)C1 (centres unmarked) [Example 85]	0.331	0.002
CCC1CCN(CCc2cc(O)c(N3CC(=O)NS3(=O)=O)c(F)c2)C1 (centres unmarked) [Example 87]	0.299	0.003
CC(C)CCC1CCN(CCc2cc(O)c(N3CC(=O)NS3(=O)=O)c(F)c2)C1 (centres unmarked) [Example 88]	1.02	0.003
O=C1CN(c2c(O)cc(CCN3CCCCC3)cc2F)S(=O)(=O)N1 [Example 90]	1.22	0.002
O=C1CN(c2c(O)cc(CCN3CCC(F)(F)C3)cc2F)S(=O)(=O)N1 [Example 91]	> 24	0.036
